Source: PMC10538245, “Fragment merging approach for design, synthesis, and biological assessment of urea/acetyl hydrazide clubbed thienopyrimidine derivatives as GSK-3β inhibitors” (BMC Chemistry, 2023)
pIC50: −log10 of the molar value. Like-named read-outs stand apart in the source and are kept apart here.

Assays:
GSK-3β [1] = molecular target: T1, GSK-3β (Homo sapiens, UniProt P49841); experiment: GSK-3β kinase inhibition, Z'-LYTE FRET assay (Thermo Fisher SelectScreen); type: biochemical; conditions: for inhibition at 100 µM: 100 μM single dose
GSK-3β [2] = molecular target: T1, GSK-3β; conditions: cited from earlier work

T1 sequence (P49841 whole entry): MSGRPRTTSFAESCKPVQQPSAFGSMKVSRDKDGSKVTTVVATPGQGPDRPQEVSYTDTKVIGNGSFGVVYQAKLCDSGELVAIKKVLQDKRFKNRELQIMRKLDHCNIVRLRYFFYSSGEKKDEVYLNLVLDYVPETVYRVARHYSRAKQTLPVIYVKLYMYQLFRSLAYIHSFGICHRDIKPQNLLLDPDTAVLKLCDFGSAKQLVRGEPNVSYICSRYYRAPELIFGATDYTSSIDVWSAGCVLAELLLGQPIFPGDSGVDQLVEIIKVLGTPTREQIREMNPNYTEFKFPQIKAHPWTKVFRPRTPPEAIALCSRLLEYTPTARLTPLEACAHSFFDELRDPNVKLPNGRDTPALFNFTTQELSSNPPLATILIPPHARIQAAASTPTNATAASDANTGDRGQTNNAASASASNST

Structure (SMILES): S=C(Nc1ccccc1)Nc1ncnc2sc3c(c12)CCCC3 [9a, Phenyl-3-(5,6,7,8-tetrahydrobenzo [4,5]thieno[2,3-d)pyrimidin-4-yl) thiourea]
- melting point: 300 °C
- inhibition at 10 µM (GSK-3β [1]; 10 μM): 17%
- inhibition at 100 µM (GSK-3β [1]): 68%

Structure (SMILES): Cc1cccc(NC(=O)Nc2ncnc3sc4c(c23)CCCC4)c1 [9b, 1-(5,6,7,8-Tetrahydrobenzo[4,5]thieno[2,3-d]pyrimidin-4-yl)-3-(m-tolyl)urea]
- melting point: 300 °C
- inhibition at 100 µM (GSK-3β [1]): 70%
- pIC50 (GSK-3β [1]; five doses 10 nM–100 µM): 4.55

Structure (SMILES): O=C(Nc1ccc(Cl)c(C(F)(F)F)c1)Nc1ncnc2sc3c(c12)CCCC3 [9c, 1-(4-Chloro-3-(trifluoromethyl)phenyl)-3-(5,6,7,8tetrahydrobenzo[4,5]thieno[2,3-d]pyrimidin-4-yl)urea]
- melting point: 300 °C
- inhibition at 100 µM (GSK-3β [1]): 68%

Structure (SMILES): COc1ccc(-c2cc3c(NC(=O)c4cccc(F)c4)ncnc3o2)cc1 [II]
- pIC50 (GSK-3β [2]): < 4.46
